Measured values: patent US20070172815A1 (priority 2000, published 2007)
Values belong to the compound of their own block, whether it stands above or below them.

What was measured:
[1] = biological target: T1, voltage-gated K+ channel KCNQ2 (Mus musculus, UniProt Q9Z351); test: Thallium influx assay (BTC fluorescence) in HEK-293 cells stably transfected with KCNQ2; format: cell-based; conditions: 15 μM final; thallium ions (5 mM) and K+ (20 mM); FIG. 3A
T1 construct: expressed in transfected cells
Experimental: (§1) Once loaded, apamin (5 μl/well of 500 nM stock dissolved in Cl^−-free assay buffer (Table II) or an equivalent volume of Cl^−-free assay buffer) was added. The microtiter plates were then transferred to the plate reader, FLIPR. After, or coincident with exposure to apamin or Cl^−-free assay buffer alone, the cells were exposed to 5 μl/well of a stimulus buffer containing 5 μM ionomycin (Calbiochem) and 7.5 mM Tl2SO4 dissolved in Cl^−-free assay buffer containing 2 mM amaranth and 1 mM tartrazine.
HEK-293 cell line stably transfected with the voltage-gated K^+ channel KCNQ2 was used; • 2. The channel opener used was retigabine (Main, M. J., et al., Mol. Pharmacol., 2000, 58, 253-62) at a final concentration of 15 μM; and • 3. The channel blocker DMP-543 (Zaczek, R., et al., J. Pharmacol. Exp. Ther. 1998, 285, 724-30) used was at a final concentration of 15 μM.
To detect channel blockers the KCNQ2 channels were opened with a combination of thallium ions (5 mM) and K^+ (20 mM). To detect openers the assay was initiated with thallium ions (3 mM).
To detect channel blockers the assay was started by adding 11 μl of stimulus buffer containing: 12.5 mM Tl2SO4 and 50 mM K2SO4 dissolved in the Cl^−-free assay buffer (Table II) containing 2 mM amaranth and 1 mM tartrazine. […]

[2] = test system: native, untransfected HEK cells; test: Control: BTC fluorescence in native, untransfected HEK cells under identical conditions; format: cell-based, human
From the text: A person of ordinary skill in the art will understand that control experiments can be performed to facilitate analysis of the effects of the candidate modulator. Control experiments can be performed using: (1) native, untransfected cells under identical conditions of the methods of the invention; (2) the addition of thallium ions to the test mixture in the absence of stimulus solution; (3) cells under identical conditions of the methods of the invention, but without the candidate modulator of the ion channels, channel-linked receptors or ion transporters added to the test mixture; and/or (4) cells under identical conditions to the methods of the invention, but using known modulators of the ion channels, channel-linked receptors or ion transporters.
as §1

[3] = biological target: T2, large conductance calcium-activated K+ channel, Maxi-K (a.k.a. BK, slo) (Homo sapiens, UniProt Q12791); test: Thallium influx assay (BTC fluorescence) in HEK-293 cells stably transfected with Maxi-K; format: cell-based
T2 construct: expressed in transfected cells

[4] = biological target: T3, non-selective cation channel vanilloid receptor (VR1) (Homo sapiens, UniProt Q8NER1); test: Thallium influx assay (BTC fluorescence) in CHO cells stably expressing VR1; format: cell-based
T3 construct: expressed in transfected cells
Experimental: (§2) A HEK-293 cell line (obtained from ATCC, Manassas, Va.) stably expressing the small conductance calcium-activated K^+ channel (SK2) was seeded at ~80% confluence in a 384 well microtiter plate, coated with poly-D-lysine plates, containing 20 μl/well low Cl^− cell growth medium. The cells were allowed to incubate overnight at 37 C in a 5% CO2 incubator.
(§3) The cell-containing plates were removed from the incubator and loaded for approximately 15 min with 2 μM BTC-AM (Molecular Probes, Eugene, Oreg.) dissolved in 20 μL/well Cl^−-free assay buffer containing amaranth and tartrazine (the final concentration in the assay is 2 mM amaranth and 1 mM tartrazine). The AM ester of BTC (BTC-AM) is membrane permeant. As it diffuses across the membrane, it is cleaved by cellular esterases, producing a charged, membrane impermeant dye, BTC. These types of dyes and loading mechanisms are well known to those familiar with the art.
The microtiter plates were then transferred to the plate reader, FLIPR.
(§4) All data shown were collected using the FLIPR (Molecular Devices, Sunnyvale, Calif). […] 10 seconds of baseline prior to addition of the stimulus buffer.
All experimental conditions for this example were the same as Example II with the following exceptions: • 1. The cell line CHO stably expressing the non-selective cation channel vanilloid receptor (VR1) was used. • 2. The channel antagonist, capsazepine (Sigma-Aldrich, RBI St Louis, Mo.) was applied at a final concentration of 10 μM; and • 3. The assay was started by adding 5 μl of stimulus buffer containing: 1 μM capsaicin and 7.5 mM Tl2SO4 dissolved in a Cl^−-free assay buffer containing 2 mM amaranth and 1 mM tartrazine.

[5] = biological target: T4, small conductance calcium-activated K+ channel (SK2) (Homo sapiens, UniProt Q9H2S1); test: Thallium influx assay (BTC fluorescence, FLIPR) in HEK-293 cells stably expressing SK2; format: cell-based; conditions: stimulus buffer with 5 μM ionomycin and 7.5 mM Tl2SO4; FIG. 1
T4 construct: expressed in transfected cells
Experimental: as §1

[6] = biological target: T4, small conductance calcium-activated K+ channel (SK2); test: Thallium efflux assay (FluoZin-1 fluorescence) in SK2 expressing HEK-293 cells; format: cell-based; conditions: stimulus buffer with 5 μM ionomycin; cells preloaded with thallium; FIG. 5
Experimental: Instead of loading the cells with 2 μM BTC-AM, the cells were loaded with 2 μM FluoZin-1 (Molecular Probes, Eugene, Oreg.)
After loading the cells with FluoZin-1, the cells were exposed to 10 μl/well of Cl^−-free assay buffer containing 7.5 mM Tl2SO4 for 10 minutes at room temperature. This step loads the cells with thallium which interacts with the thallium ion sensitive fluorescent dye FluoZin-1 and increases its fluorescence.
Following loading the cells with thallium ions, the solution bathing the cells was aspirated off, and replaced with 80 μl/well of Cl^−-free assay buffer.

[7] = biological target: Muscarinic acetylcholine receptor (Homo sapiens, UniProt P20309)
Experimental: as §2, §3, §4

[8] = Example III (Maxi-K) conditions

T3 sequence (Q8NER1 whole entry): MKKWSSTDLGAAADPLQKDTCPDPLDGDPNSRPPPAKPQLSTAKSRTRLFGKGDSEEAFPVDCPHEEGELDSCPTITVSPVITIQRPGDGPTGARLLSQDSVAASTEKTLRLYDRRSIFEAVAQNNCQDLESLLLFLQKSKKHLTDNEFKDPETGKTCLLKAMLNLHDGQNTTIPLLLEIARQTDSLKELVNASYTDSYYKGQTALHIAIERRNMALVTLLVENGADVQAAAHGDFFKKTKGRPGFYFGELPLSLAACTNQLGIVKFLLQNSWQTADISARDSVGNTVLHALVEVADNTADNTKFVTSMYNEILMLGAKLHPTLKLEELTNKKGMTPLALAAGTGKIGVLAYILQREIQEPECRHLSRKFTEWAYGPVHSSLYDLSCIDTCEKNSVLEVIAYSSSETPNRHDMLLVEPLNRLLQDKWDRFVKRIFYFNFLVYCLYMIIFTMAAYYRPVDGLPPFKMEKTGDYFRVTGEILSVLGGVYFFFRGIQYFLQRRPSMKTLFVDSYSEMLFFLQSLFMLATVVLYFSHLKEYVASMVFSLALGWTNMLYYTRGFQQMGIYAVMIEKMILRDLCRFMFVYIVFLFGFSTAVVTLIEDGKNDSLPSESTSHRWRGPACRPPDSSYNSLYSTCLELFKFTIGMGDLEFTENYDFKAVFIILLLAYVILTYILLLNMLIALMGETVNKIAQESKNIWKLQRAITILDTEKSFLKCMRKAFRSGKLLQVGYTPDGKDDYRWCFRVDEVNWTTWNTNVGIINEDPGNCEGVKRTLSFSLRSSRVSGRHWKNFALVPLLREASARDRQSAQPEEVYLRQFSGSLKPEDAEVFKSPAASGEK
T2 sequence (Q12791 whole entry): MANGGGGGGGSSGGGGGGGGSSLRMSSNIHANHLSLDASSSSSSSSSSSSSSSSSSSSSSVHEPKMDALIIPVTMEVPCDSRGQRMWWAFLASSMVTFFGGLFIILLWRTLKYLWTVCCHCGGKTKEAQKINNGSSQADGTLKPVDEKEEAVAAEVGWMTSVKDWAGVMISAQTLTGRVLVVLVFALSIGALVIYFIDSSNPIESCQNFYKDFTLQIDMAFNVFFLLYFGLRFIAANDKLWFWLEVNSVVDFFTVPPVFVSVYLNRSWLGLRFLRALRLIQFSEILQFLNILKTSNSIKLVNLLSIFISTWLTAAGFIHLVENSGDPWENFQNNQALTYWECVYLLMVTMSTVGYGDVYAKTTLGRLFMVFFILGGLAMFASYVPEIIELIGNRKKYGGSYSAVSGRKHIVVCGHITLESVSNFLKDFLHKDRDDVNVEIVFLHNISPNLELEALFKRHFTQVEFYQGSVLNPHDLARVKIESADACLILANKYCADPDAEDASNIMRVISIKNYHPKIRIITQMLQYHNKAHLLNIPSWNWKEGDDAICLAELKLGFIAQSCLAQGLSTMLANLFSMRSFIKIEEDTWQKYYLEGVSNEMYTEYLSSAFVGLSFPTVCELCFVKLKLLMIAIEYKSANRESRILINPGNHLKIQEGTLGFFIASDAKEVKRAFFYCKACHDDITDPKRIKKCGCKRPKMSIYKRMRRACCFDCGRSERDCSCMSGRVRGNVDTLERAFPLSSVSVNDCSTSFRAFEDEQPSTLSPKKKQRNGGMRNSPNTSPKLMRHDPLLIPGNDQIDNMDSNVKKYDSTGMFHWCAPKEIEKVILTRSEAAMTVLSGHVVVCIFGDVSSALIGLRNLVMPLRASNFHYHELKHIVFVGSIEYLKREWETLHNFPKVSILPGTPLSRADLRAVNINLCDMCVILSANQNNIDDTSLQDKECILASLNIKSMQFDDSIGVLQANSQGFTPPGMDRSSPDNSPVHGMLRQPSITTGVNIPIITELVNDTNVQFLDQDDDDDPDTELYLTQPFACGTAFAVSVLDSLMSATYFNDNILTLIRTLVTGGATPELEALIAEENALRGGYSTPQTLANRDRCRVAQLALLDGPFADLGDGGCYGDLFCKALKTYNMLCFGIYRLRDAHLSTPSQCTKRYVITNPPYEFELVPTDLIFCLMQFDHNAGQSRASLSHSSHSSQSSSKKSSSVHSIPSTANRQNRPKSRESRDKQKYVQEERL
T4 sequence (Q9H2S1 whole entry): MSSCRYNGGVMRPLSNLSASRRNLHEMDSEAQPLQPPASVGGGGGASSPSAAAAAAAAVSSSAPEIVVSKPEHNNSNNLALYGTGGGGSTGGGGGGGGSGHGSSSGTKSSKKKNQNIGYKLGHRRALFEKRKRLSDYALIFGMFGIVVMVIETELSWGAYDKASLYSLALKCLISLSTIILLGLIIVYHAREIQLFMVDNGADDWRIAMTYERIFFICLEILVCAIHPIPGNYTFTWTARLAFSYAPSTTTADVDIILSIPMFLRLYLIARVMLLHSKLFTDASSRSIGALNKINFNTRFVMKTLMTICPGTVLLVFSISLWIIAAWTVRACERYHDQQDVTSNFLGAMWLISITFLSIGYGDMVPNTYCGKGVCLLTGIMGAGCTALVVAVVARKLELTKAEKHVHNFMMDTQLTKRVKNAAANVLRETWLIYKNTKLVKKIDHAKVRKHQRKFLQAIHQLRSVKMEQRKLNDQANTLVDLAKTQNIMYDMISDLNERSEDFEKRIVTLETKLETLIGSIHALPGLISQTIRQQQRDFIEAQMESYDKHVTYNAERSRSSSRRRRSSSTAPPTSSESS
T1 sequence (Q9Z351 whole entry): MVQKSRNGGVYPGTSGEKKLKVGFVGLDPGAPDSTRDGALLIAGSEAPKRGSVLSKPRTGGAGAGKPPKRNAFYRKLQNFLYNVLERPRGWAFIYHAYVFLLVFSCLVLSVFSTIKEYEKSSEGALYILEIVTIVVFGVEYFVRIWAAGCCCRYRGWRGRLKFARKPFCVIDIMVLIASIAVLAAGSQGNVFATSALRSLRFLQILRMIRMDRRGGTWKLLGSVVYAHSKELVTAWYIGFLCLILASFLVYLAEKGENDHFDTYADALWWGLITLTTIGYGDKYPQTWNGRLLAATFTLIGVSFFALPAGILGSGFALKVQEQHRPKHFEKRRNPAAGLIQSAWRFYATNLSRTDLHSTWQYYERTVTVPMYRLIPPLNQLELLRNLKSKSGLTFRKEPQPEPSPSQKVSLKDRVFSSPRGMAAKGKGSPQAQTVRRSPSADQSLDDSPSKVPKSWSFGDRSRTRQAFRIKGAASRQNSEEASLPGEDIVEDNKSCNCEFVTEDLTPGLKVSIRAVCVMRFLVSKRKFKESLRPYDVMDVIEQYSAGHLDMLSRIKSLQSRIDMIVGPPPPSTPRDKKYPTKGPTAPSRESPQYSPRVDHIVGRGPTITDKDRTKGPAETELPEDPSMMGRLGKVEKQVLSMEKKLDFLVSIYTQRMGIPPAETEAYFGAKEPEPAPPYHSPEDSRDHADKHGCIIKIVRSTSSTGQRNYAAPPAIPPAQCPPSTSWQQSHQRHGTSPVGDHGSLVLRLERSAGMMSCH
Chain of Muscarinic acetylcholine receptor (P20309 whole entry): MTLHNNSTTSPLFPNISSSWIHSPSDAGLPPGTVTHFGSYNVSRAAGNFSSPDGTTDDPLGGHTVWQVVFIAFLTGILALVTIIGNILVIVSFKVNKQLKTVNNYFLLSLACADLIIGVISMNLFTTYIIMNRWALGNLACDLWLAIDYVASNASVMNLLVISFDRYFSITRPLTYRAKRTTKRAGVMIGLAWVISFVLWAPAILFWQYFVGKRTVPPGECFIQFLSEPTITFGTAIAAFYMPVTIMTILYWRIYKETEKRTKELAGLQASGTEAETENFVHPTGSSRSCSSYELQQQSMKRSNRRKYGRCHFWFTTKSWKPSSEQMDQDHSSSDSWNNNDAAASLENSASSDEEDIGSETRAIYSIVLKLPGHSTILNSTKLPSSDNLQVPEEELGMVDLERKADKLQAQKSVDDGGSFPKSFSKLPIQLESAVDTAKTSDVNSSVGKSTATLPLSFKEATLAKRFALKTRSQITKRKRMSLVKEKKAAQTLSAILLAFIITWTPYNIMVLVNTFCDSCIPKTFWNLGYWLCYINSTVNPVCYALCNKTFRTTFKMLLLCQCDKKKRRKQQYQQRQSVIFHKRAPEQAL

Compound: O=C1c2ccccc2C(Cc2ccnc(F)c2)(Cc2ccnc(F)c2)c2ccccc21 [DMP-543]
- Effect of blocker on the thallium/potassium-induced increase in BTC fluorescence [1]: completely abolished
- Effect on the fluorescence of BTC loaded into native, untransfected HEK cells ([2]; Example IV (KCNQ2) conditions): Neither DMP-543 nor retigabine had any effects

Compound: O=c1[nH]c2cc(C(F)(F)F)ccc2n1-c1cc(C(F)(F)F)ccc1O [NS-1619]
- Effect of opener on the thallium-induced increase in BTC fluorescence compared to absence of opener [3]: marked increase
- Effect on the fluorescence of BTC loaded into native, untransfected HEK cells [2, 8]: Neither iberiotoxin nor NS-1619 had any effects

- Effect of compound alone on BTC fluorescence in VR1 expressing CHO cells [4]: small decrease, but no increase
- Change in BTC fluorescence upon addition of thallium and agonist ([4]; stimulus buffer with 1 μM capsaicin and 7.5 mM Tl2SO4, FIG. 4): substantial increase
Compound: COc1cc(CNC(=O)CCCC/C=C/C(C)C)ccc1O [capsaicin]

- Effect of antagonist on the thallium/capsaicin-induced increase in BTC fluorescence ([4]; 10 μM final, FIG. 4): completely abolished
- Effect of compound alone on BTC fluorescence in VR1 expressing CHO cells [4]: no effect
Compound: Oc1cc2c(cc1O)CN(C(=S)NCCc1ccc(Cl)cc1)CCC2 [capsazepine]

Compound: C[C@H](CCC(=O)O)C[C@H](C)C[C@H](C)C(=O)/C=C(\O)[C@H](C)C[C@H](C)C/C=C/[C@@H](C)[C@@H](O)[C@@H](C)[C@@H](O)C[C@@H]1CC[C@@](C)([C@H]2CC[C@@](C)([C@@H](C)O)O2)O1 [ionomycin]
- Change in BTC fluorescence upon addition of thallium ions plus ionomycin (activation of SK2) [5]: substantial increase
- Change in FluoZin-1 fluorescence upon addition of ionomycin (thallium efflux via activated SK channel) [6]: decrease in fluorescence

Compound: C[N+](C)(C)CC#CCN1CCCC1=O [oxo-M, oxotremorine-M]
- Change in BTC fluorescence upon addition of muscarinic receptor agonist [7]: increase in BTC fluorescence

Compound: Iberiotoxin (QFTDVDCSVSKECWSVCKDLFGVDRGKCMGKKCRCYQ; UniProt P24663 1-37, looked up)
- Effect of blocker on the thallium/ionomycin/potassium-induced increase in BTC fluorescence ([3]; 100 nM final, stimulus buffer with 15 μM ionomycin, FIG. 2A): completely abolished
- Effect on the fluorescence of BTC loaded into native, untransfected HEK cells [2, 8]: Neither iberiotoxin nor NS-1619 had any effects
